Our source for the inhibition and EC50 values is ChEMBL document CHEMBL1143183, “New polyphenols active on beta-amyloid aggregation” (Bioorg Med Chem Lett, 2008).

The term inhibition denotes the drop in the measured response relative to a control, in per cent. Low values mean a weak effect, high ones a strong effect. One may read the EC50 as the concentration at which the effect is half-maximal.

Experiment [1] in a line: Inhibition of beta amyloid 25-35 fibril formation at 10 uM.
The nature of experiment [2]: Inhibition of beta amyloid 25-35 fibril formation.

In experiment [1], `O=C(O)c1ccc(O)cc1` yielded an inhibition of 29%.

The molecule `OC[C@H]1O[C@@H](Oc2cc3c(O)cc(O)cc3[o+]c2-c2ccc(O)c(O)c2)[C@H](O)[C@@H](O)[C@@H]1O` gave an inhibition in experiment [1] of 31%.

In experiment [1], `Oc1cc(O)c2cc(O)c(-c3ccc(O)c(O)c3)[o+]c2c1` came in with an inhibition of 35%.

In experiment [1], `O=C(O)/C=C/c1ccc(O)cc1` returned an inhibition of 17%.

In the case of `O=C(O[C@@H]1Cc2c(O)cc(O)cc2O[C@@H]1c1cc(O)c(O)c(O)c1)c1cc(O)c(O)c(O)c1`, the inhibition in experiment [1] amounted to 13%.

For `COc1cc(-c2[o+]c3cc(O)cc(O)c3cc2O)cc(OC)c1O` [MALVIDIN], the EC50 in experiment [2] turned out to be 10 µM. This molecule registered an inhibition in experiment [1] of 46%.

As to `COc1cccc(OC)c1C(=O)OCc1cc(O)ccc1O[C@@H]1O[C@H](CO)[C@@H](O)[C@H](O)[C@H]1O`, the inhibition in experiment [1] turned out to be 28%.

For the molecule `COc1cc(-c2[o+]c3cc(O)cc(O)c3cc2O[C@@H]2O[C@H](CO)[C@@H](O)[C@H](O)[C@H]2O)cc(OC)c1O` [OENIN], in experiment [2], the concentration for a half-maximal effect (EC50) was 10 µM. In experiment [1], this molecule registered an inhibition of 44%.

For the molecule `COc1ccc(O)c(OC)c1C(=O)OCc1ccccc1O[C@@H]1O[C@H](CO)[C@@H](O)[C@H](O)[C@H]1O` [CURCULIGOSIDE D], the EC50 in experiment [2] was 9.5 µM. Moreover, the inhibition in experiment [1] came to 49%.

The molecule `Oc1ccc(/C=C/c2cc(O)cc(O)c2)cc1` [RESVERATROL] returned a 50% effective concentration (EC50) in experiment [2] of 6 µM. In addition, the inhibition in experiment [1] was 63%.

For `COc1cccc(O)c1C(=O)OCc1cc(O)ccc1O[C@@H]1O[C@H](CO)[C@@H](O)[C@H](O)[C@H]1O` [CURCULIGOSIDE B], in experiment [2], the midpoint of the response, the EC50, lay at 8.5 µM. The same molecule yielded an inhibition in experiment [1] of 53%.

In turn, `O=C(O)/C=C/c1ccc(O)c(O)c1` returned an inhibition in experiment [1] of 15%.

Turning to `Oc1cc(O)c2c(c1)O[C@H](c1cc(O)c(O)c(O)c1)[C@H](O)C2`, in experiment [1], the inhibition was found to be 18%.

As for `O=C(O[C@@H]1Cc2c(O)cc(O)cc2O[C@@H]1c1ccc(O)c(O)c1)c1cc(O)c(O)c(O)c1`, the inhibition in experiment [1] was determined as 13%.

`Oc1cc(O)c2cc(O)c(-c3cc(O)c(O)c(O)c3)[o+]c2c1` registered an inhibition in experiment [1] of 26%.

For `COc1cc(/C=C/C(=O)CC(=O)/C=C/c2ccc(O)c(OC)c2)ccc1O` [CURCUMIN], the EC50 in experiment [2] was 10 µM. The molecule further returned an inhibition in experiment [1] of 45%.

On to `COc1cc(/C=C/c2ccc(O)cc2)cc(OC)c1`, for which the inhibition in experiment [1] stood at 35%.
